Laboratory results from US10472356B2, “Bicyclic ketone sulfonamide compounds” (AMGEN INC., priority 2015, dated 2019).

How the values were obtained:
Format in all cases: cell-based
[1] = molecular target: T1, human Nav1.7 (Homo sapiens, UniProt Q15858); test: Nav 1.7 IWQ In Vitro Assay (IonWorks Quattro); conditions: HEK293 cells stably transfected with human Nav 1.7; IonWorks Quattro population patch-clamp; 26th pulse to −20 mV, 5 Hz; cells unclamped 5 to 8 minutes with compound; read-out: hNav1.7 IWQ IC50
T1 construct: expressed in transfected cells; host or cells: HEK293
T1 sequence (Q15858 whole entry): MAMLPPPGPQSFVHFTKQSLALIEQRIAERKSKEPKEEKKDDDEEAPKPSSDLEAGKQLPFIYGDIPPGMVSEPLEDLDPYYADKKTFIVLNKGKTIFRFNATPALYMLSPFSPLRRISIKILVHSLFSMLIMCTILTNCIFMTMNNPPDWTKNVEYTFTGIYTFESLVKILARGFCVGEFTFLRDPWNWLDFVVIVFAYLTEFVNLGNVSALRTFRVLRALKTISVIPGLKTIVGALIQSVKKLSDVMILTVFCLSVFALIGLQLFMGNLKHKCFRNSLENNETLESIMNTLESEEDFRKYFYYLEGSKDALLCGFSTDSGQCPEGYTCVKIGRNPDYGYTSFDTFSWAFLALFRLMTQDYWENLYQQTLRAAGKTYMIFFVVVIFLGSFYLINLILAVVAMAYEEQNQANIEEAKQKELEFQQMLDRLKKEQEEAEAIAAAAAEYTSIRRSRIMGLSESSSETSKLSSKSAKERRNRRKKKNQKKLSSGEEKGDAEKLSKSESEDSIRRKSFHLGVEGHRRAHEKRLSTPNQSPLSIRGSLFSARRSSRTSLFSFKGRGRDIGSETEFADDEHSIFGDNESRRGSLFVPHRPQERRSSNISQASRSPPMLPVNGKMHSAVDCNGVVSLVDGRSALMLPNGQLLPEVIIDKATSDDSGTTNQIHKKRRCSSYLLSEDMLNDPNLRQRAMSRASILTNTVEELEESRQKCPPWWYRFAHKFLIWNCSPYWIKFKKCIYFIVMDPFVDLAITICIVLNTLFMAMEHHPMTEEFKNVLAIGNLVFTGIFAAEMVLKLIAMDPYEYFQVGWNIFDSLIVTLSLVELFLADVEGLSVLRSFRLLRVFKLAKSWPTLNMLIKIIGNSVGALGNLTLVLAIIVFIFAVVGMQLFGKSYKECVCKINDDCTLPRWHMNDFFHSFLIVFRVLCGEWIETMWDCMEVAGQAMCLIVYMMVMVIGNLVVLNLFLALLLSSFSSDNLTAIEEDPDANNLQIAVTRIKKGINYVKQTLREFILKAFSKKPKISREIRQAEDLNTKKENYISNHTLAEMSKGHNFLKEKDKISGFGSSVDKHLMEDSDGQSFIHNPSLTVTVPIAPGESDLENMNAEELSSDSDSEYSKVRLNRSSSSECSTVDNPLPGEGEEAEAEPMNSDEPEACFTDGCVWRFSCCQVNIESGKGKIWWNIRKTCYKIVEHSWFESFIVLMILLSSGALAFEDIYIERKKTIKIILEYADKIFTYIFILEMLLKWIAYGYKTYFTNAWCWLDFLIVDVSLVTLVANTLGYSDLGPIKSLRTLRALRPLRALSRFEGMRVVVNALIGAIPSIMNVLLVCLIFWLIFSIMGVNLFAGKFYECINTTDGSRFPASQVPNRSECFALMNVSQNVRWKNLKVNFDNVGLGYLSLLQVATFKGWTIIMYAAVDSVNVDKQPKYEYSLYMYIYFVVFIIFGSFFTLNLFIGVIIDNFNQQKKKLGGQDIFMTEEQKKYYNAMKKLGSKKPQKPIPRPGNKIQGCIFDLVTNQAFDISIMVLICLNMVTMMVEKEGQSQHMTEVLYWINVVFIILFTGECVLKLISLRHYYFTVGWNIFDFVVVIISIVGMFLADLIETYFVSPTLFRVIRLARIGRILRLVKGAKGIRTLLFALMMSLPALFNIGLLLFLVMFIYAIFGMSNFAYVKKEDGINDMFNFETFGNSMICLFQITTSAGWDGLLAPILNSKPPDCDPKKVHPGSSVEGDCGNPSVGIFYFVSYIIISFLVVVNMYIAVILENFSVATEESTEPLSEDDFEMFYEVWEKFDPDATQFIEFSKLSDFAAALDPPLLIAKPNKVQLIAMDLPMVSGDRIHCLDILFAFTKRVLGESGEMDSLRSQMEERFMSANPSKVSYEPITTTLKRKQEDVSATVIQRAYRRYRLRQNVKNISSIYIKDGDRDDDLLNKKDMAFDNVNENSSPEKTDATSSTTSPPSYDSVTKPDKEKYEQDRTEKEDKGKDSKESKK
Procedure, shortened: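 Population patch clamp on HEK293 cells stably expressing human Nav 1.7: held at −110 mV for three seconds, then 26 pulses of 150 msec to −20 mV at 5 Hz, before and after 5-8 min with one compound concentration. Percent inhibition from peak current at the 26th pulse.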

[2] = molecular target: T1, human Nav1.7; test: Nav 1.7 IWB In Vitro Assay (IonWorks Barracuda); conditions: HEK293 cells stably transfected with human Nav 1.7; IonWorks Barracuda population patch-clamp; cells clamped to −20 mV for 4 minutes with compound; 26th pulse; read-out: hNav1.7 IWB IC50
Procedure, shortened: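 IC50 derived from concentration-response of percent block of the 26th-pulse peak inward current, compound vs none. Protocol: stable human Nav 1.7 HEK293 cells on automated population patch clamp, held at −110 mV, 5 Hz train of 150 ms steps to −20 mV, 4 min compound exposure depolarized at −20 mV, 3 s repolarization, train repeated.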

[3] = molecular target: T1, human Nav1.7; test: Nav 1.7 In Vitro PatchXpress (PX) Assay; conditions: HEK 293 cells stably transfected with human Nav1.7; PatchXpress whole cell voltage clamp; partially inactivated state (holding potential yielding 20 to 50% inactivation); read-out: hNav1.7 PX IC50
Procedure, shortened: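 Percent inhibition of peak sodium current taken after 3 min exposure to one compound concentration, 3–5 cells each, with IC50 curve fits. Partially inactivated channels (20–50% inactivation at holding potential) in Nav1.7-HEK 293 cells, activated by 20 ms steps to −10 mV every 10 s.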

IC50 [1] [nM] | IC50 [2] [nM] | IC50 [3] [nM] | SMILES
7.8 | 14.3 | 76.3 | COc1cc(-c2cc(F)cc(Cl)c2)ccc1-n1c2c(ccc1=O)CN(S(=O)(=O)Nc1ccon1)CC2 (single isomer, unassigned) [Example 7-P, P-1-(3′-chloro-5′-fluoro-3-methoxy-4-biphenylyl)-N-3-isoxazolyl-2-oxo-1,5,7,8-tetrahydro-1,6-naphthyridine-6(2H)-sulfonamide]
2.1 | 3.1 | 18 | COc1cc(-c2cc(Cl)ccc2C)c(F)cc1-n1c2c(ccc1=O)CN(S(=O)(=O)Nc1ccon1)CC2 (single isomer, unassigned) [Example 9-P, P-1-(5′-chloro-2-fluoro-5-methoxy-2′-methyl-4-biphenylyl)-N-3-isoxazolyl-2-oxo-1,5,7,8-tetrahydro-1,6-naphthyridine-6(2H)-sulfonamide]
54 | 55.3 | 166 | COc1cc(-c2cc(F)cc(Cl)c2)c(F)cc1-n1c2c(ccc1=O)CN(S(=O)(=O)Nc1ccccn1)CC2 (single isomer, unassigned) [Example 11-P, P-1-(3′-chloro-2,5′-difluoro-5-methoxy-4-biphenylyl)-2-oxo-N-2-pyridinyl-1,5,7,8-tetrahydro-1,6-naphthyridine-6(2H)-sulfonamide]
56.6 | 52.5 | 44.5 | COc1cc(-c2cc(F)cc(Cl)c2)c(F)cc1-n1c2c(ccc1=O)CN(S(=O)(=O)Nc1ccc(F)cn1)CC2 (single isomer, unassigned) [Example 12-P, P-1-(3′-chloro-2,5′-difluoro-5-methoxy-4-biphenylyl)-N-(5-fluoro-2-pyridinyl)-2-oxo-1,5,7,8-tetrahydro-1,6-naphthyridine-6(2H)-sulfonamide]
28.4 | 27.1 | 27.9 | COc1cc(-c2cc(F)cc(Cl)c2)c(F)cc1-n1c2c(ccc1=O)CN(S(=O)(=O)Nc1cccc(F)n1)CC2 (single isomer, unassigned) [Example 13-P, P-1-(3′-chloro-2,5′-difluoro-5-methoxy-4-biphenylyl)-N-(6-fluoro-2-pyridinyl)-2-oxo-1,5,7,8-tetrahydro-1,6-naphthyridine-6(2H)-sulfonamide]
26 | 12.4 | 103 | COc1cc(-c2cc(F)cc(F)c2)c(F)cc1-n1c2c(ccc1=O)CN(S(=O)(=O)Nc1cccc(F)n1)CC2 (single isomer, unassigned) [Example 14-P, P-N-(6-fluoro-2-pyridinyl)-2-oxo-1-(2,3′,5′-trifluoro-5-methoxy-4-biphenylyl)-1,5,7,8-tetrahydro-1,6-naphthyridine-6(2H)-sulfonamide]
2.6 | 2.4 | 15.8 | COc1cc(-c2cccc(C(F)(F)F)c2)c(F)cc1-n1c2c(ccc1=O)CN(S(=O)(=O)Nc1ccon1)CC2 (single isomer, unassigned) [Example 16-P, P-1-(2-fluoro-5-methoxy-3′-(trifluoromethyl)-4-biphenylyl)-N-3-isoxazolyl-2-oxo-1,5,7,8-tetrahydro-1,6-naphthyridine-6(2H)-sulfonamide]
2.9 | 3.9 | 17.5 | COc1cc(-c2cc(F)cc(Cl)c2)c(F)cc1-n1c2c(ccc1=O)CN(S(=O)(=O)Nc1ccon1)CC2 (single isomer, unassigned) [Example 18-P, P-1-(3′-chloro-2,5′-difluoro-5-methoxy-4-biphenylyl)-N-3-isoxazolyl-2-oxo-1,5,7,8-tetrahydro-1,6-naphthyridine-6(2H)-sulfonamide]
5 | 7.4 | 33.3 | COc1cc(-c2cccc(OC(F)F)c2)c(F)cc1-n1c2c(ccc1=O)CN(S(=O)(=O)Nc1ccon1)CC2 (single isomer, unassigned) [Example 19-P, P-1-(3′-(difluoromethoxy)-2-fluoro-5-methoxy-4-biphenylyl)-N-3-isoxazolyl-2-oxo-1,5,7,8-tetrahydro-1,6-naphthyridine-6(2H)-sulfonamide]
3.6 | 11.5 | 39.3 | COc1cc(-c2ccc(F)c(F)c2)c(F)cc1-n1c2c(ccc1=O)CN(S(=O)(=O)Nc1ccon1)CC2 (single isomer, unassigned) [Example 20-P, P-N-3-isoxazolyl-2-oxo-1-(2,3′,4′-trifluoro-5-methoxy-4-biphenylyl)-1,5,7,8-tetrahydro-1,6-naphthyridine-6(2H)-sulfonamide]
7.7 | 9.5 | 24.3 | COc1cc(-c2ccc(C)c(F)c2)c(F)cc1-n1c2c(ccc1=O)CN(S(=O)(=O)Nc1ccon1)CC2 (single isomer, unassigned) [Example 21-P, P-1-(2,3′-difluoro-5-methoxy-4′-methyl-4-biphenylyl)-N-3-isoxazolyl-2-oxo-1,5,7,8-tetrahydro-1,6-naphthyridine-6(2H)-sulfonamide]
3.2 | 8 | 106 | COc1cc(-c2ccc(F)c(C)c2)c(F)cc1-n1c2c(ccc1=O)CN(S(=O)(=O)Nc1ccon1)CC2 (single isomer, unassigned) [Example 22-P, P-1-(2,4′-difluoro-5-methoxy-3′-methyl-4-biphenylyl)-N-3-isoxazolyl-2-oxo-1,5,7,8-tetrahydro-1,6-naphthyridine-6(2H)-sulfonamide]
5.2 | 3.8 | 20.9 | COc1cc(-c2ccc(Cl)c(C)c2)c(F)cc1-n1c2c(ccc1=O)CN(S(=O)(=O)Nc1ccon1)CC2 (single isomer, unassigned) [Example 24-P, P-1-(4′-chloro-2-fluoro-5-methoxy-3′-methyl-4-biphenylyl)-N-3-isoxazolyl-2-oxo-1,5,7,8-tetrahydro-1,6-naphthyridine-6(2H)-sulfonamide]
13.3 | 37.5 | 197 | COc1cc(-c2ccc(Cl)c(C)c2)c(F)cc1-n1c2c(ccc1=O)CN(S(=O)(=O)Nc1ncccn1)CC2 (single isomer, unassigned) [Example 30-P, P-1-(4′-chloro-2-fluoro-5-methoxy-3′-methyl-4-biphenylyl)-2-oxo-N-2-pyrimidinyl-1,5,7,8-tetrahydro-1,6-naphthyridine-6(2H)-sulfonamide]
18.4 | 17.5 | 144 | COc1cc(-c2ccc(F)c(F)c2)c(F)cc1-n1c2c(ccc1=O)CN(S(=O)(=O)Nc1cccnn1)CC2 (single isomer, unassigned) [Example 32-P, P-2-oxo-N-3-pyridazinyl-1-(2,3′,4′-trifluoro-5-methoxy-4-biphenylyl)-1,5,7,8-tetrahydro-1,6-naphthyridine-6(2H)-sulfonamide]
14.7 | 12.6 | 21.3 | COc1cc(-c2ccc(Cl)c(C)c2)c(F)cc1-n1c2c(ccc1=O)CN(S(=O)(=O)Nc1cccnn1)CC2 (single isomer, unassigned) [Example 33-P, P-1-(4′-chloro-2-fluoro-5-methoxy-3′-methyl-4-biphenylyl)-2-oxo-N-3-pyridazinyl-1,5,7,8-tetrahydro-1,6-naphthyridine-6(2H)-sulfonamide]
9.2 | 12.2 | 192 | COc1cc(C#CC2CCCC2)c(F)cc1-n1c2c(ccc1=O)CN(S(=O)(=O)Nc1ccon1)CC2 (single isomer, unassigned) [Example 34-P, P-1-(4-(cyclopentylethynyl)-5-fluoro-2-methoxyphenyl)-N-3-isoxazolyl-2-oxo-1,5,7,8-tetrahydro-1,6-naphthyridine-6(2H)-sulfonamide]
6.7 | 10.9 | 56.1 | COc1cc(-c2cc(F)cc(Cl)c2)c(F)cc1-n1c2c(ccc1=O)CN(S(=O)(=O)Nc1cccnn1)CC2 (single isomer, unassigned) [Example 38-P, P-1-(3′-chloro-2,5′-difluoro-5-methoxy-4-biphenylyl)-2-oxo-N-3-pyridazinyl-1,5,7,8-tetrahydro-1,6-naphthyridine-6(2H)-sulfonamide]
19.4 | 9.2 | 107 | COc1cc(-c2cc(OC)c(-n3c4c(ccc3=O)CN(S(=O)(=O)Nc3ccon3)CC4)cc2F)ccc1C (single isomer, unassigned) [Example 58-P, P-1-(2-fluoro-3′,5-dimethoxy-4′-methyl-4-biphenylyl)-N-3-isoxazolyl-2-oxo-1,5,7,8-tetrahydro-1,6-naphthyridine-6(2H)-sulfonamide]
3.4 | 3.5 | 16.9 | COc1cc(-c2cccc(C(F)(F)F)c2)c(Cl)cc1-n1c2c(ccc1=O)CN(S(=O)(=O)Nc1cccnn1)CC2 (single isomer, unassigned) [Example 91-P, P-1-(2-chloro-5-methoxy-3′-(trifluoromethyl)-[1,1′-biphenyl]-4-yl)-2-oxo-N-(pyridazin-3-yl)-1,2,7,8-tetrahydro-1,6-naphthyridine-6(5H)-sulfonamide]
